Data: patent US8207195B2, “Method for treating neurological and neuropathic diseases using rho kinase inhibitor compounds” (priority 2008, dated 2012)
Entries after “also recorded” stand apart in the source; their conditions may differ.

Tests used:
[1] = test system: ova-sensitized, ova-challenged mice; assay: Mouse ovalbumin sensitization model, anti-inflammatory dosing: BALF eosinophils and cytokines; assay type: in vivo; details: for Airway eosinophil infiltration (eosinophils per ml of BALF): dosed orally to day 31, anti-inflammatory dosing paradigm
Procedure: Male BALB/c mice were ordered from Charles River Laboratories (Raleigh, N.C.). The animals were approximately 19 to 21 grams at time of receipt. Upon arrival, the animals were randomized into groups of five males per cage and assigned to a dosing group. Animals were quarantined for 7 days under test conditions. They were observed daily for general health status and ability to adapt to the water bottles. Animals were sensitized on day 0 and 14 of study by an intraperitoneal injection with 20 μg of ovalbumin (ova) and 2.0 mg aluminum hydroxide (alum) which initiates the development of a specific T-helper (Th) cells type 2 resulting in asthmatic animals (denoted as Ova in the figures). One group of animals received an injection of saline to use as control animals (denoted as normal in the figures). […] Aerosol challenge consists of using an Aerogen Aeroneb nebulizer and controller with a particle size of 4-6 μm mass median aerodynamic diameter (MMAD) with a distribution of 400 μl per minute. This aerosol challenge is necessary to target the Th2-driven allergic inflammation in the lower airways.
The anti-inflammatory dosing paradigm (FIG. 1) was utilized to evaluate the anti-inflammatory effects of experimental compounds. […] On day 32 of the experiment, after measurement of airway hyperreactivity, BALF was collected and all animals were anesthetized, bled and euthanized.
Bronchoalveolar lavage fluid (BALF) was collected by infusing 3.0 ml of saline with 10% fetal calf serum into the lungs via the trachea and then withdrawing the fluid. The total amount of cells/ml of BALF fluid was determined via manual cell count on hemocytometer. The BALF was centrifuged, supernatant removed and analyzed for cytokine concentrations as described below, and cell pellet reconstituted in 500 μL of fluid. Cytospin slides were prepared from the cell pellet using 100 μL of fluid and spinning samples for 5 minutes at 5000 rpms in a cytospin centrifuge. Following Hema3 stain, relative percentages of individual leukocytes were determined on a 200 cell count for each sample. The final concentration of individual leukocyte cell types per ml of BALF was determined by multiplication of the relative percentage of individual leukocytes with the total amount of cells/ml of BALF fluid.
The concentrations of cytokines in the BALF samples were determined using commercially available Bio-plex kits (Bio-Rad) for the detection of mouse IL-5, IL-13, and Eotaxin. The analysis of cytokine levels was measured using the Bio-Plex 200 (Bio-Rad) system according to the manufacturer's instructions.

[2] = Rat oral pharmacokinetics (plasma); assay type: in vivo; details: 20-30 μmol/kg, mean n = 3
Procedure: Plasma (EDTA K2 anticoagulant) was collected from male, cannulated, CD Sprague Dawley rats to determine the pharmacokinetics of formulations containing compound inhibitors of Rho kinase. Each animal was dosed orally with a 4 ml/kg solution or suspension of each test compound in 10 mM acetate buffered saline, pH 4.5 at a final concentration range of 20-30 μmol/kg. Blood was collected at 0.25, 0.5, 1, 2, 4, 6, 8, and 24 hours. Plasma samples were assayed for the concentration of the test compound using an on-line, solid phase extraction LC/MS/MS analysis system.
Samples were analyzed on a QSTAR Elite, hybrid quadrupole time-of-flight mass spectrometer (Applied Biosystems, Framingham, Mass.) coupled with a Symbiosis Pharma integrated, on-line SPE-HPLC system (Spark Holland Inc., Plainsboro, N.J.). Analyst QS 2.0 software was used for instrument control, data acquisition and processing. […] Mobile Phase A consisted of 0.1% ammonium hydroxide in water and Mobile Phase B consisted of 0.1% formic acid in acetonitrile. Pharmacokinetic analyses were performed using WinNonlin software version 5.2 (Pharsight Corporation, Mountain View, Calif.).
As determined from the plasma concentration versus time curves, the time to peak and peak exposure are represented by the values Tmax and Cmax, respectively. The AUC values (nM*hr) shown were calculated as the areas under the plasma concentration versus time curves from time zero through the time of the last observable value and represent the total exposure of the compound over the course of the study. Half-life values or the amount of time required for the plasma levels of the compound to decline to half the initial value are represented as t½.

LPS-challenged mice = assay: LPS-induced neutrophilia and cytokine production assay; assay type: in vivo, mouse; details: for IL-1β levels in BALF: intratracheal administration, LPS-challenged mice
Procedure: This assay is an in vivo assay of neutrophil accumulation and cytokine production that can be used to evaluate the activity of Rho Kinase inhibitor compounds of Formula I or II as anti-inflammatory agents in a whole animal model.
Male BALB/c mice, approximately 19 to 21 grams, were ordered from Charles River Laboratories (Raleigh, N.C.). All animals were challenged with aerosolized LPS (10 μg/ml) for 25 minutes on study day 0. LPS aerosol was generated using an Aerogen Aeroneb nebulizer and controller providing a flow of 400 μl/min and a particle size of 2-4 μm MMAD. Rolipram was administered i.p at 20 mg/kg. […] Four hours following LPS challenge, BALF was collected using a total of 3 ml of 0.9% sodium chloride containing 10% fetal calf serum. Total cell counts were determined using the Coulter Counter. For differential evaluations, BALF was centrifuged and cytospin slides prepared and stained with Hema3 stain. Manual leukocyte counts were then completed on 200 cells. The final concentration of individual leukocyte cell types per ml of BALF was determined by multiplication of the relative percentage of individual leukocytes with the total amount of cells/ml of BALF fluid. The concentration of IL-1β in the BALF samples was determined using commercially available Bio-plex kits (Bio-Rad). The analysis of cytokine levels was measured using the Bio-Plex 200 (Bio-Rad) system according to the manufacturer's instructions.

[3] = test system: ova-sensitized, ova-challenged mice; assay: Prevention of airway hyperreactivity (Penh, methacholine) in ovalbumin-sensitized mice; assay type: in vivo, mouse; details: for airway hyperreactivity to metacholine: oral 15 μMol/kg once a day during days 27 to 31, tested Day 32
Text: Airway hyperreactivity is a downstream physiologic effect of inflammation in the mouse ovalbumin sensitization model. The objective of the experiment was to answer whether the decrease in inflammation due to ROCK inhibitor anti-inflammatory dosing results in the prevention of downstream physiological consequences as measured by Penh. […] The anti-inflammatory dosing paradigm consists of dosing the animals once a day starting on day 27 and finishing on either day 30 or 31 (1 hr prior to the aerosolized ovalbumin challenges on days 28 to 30) but not on day 32 when hyperreactivity evaluation occurs. […] Exposure to the methacholine doses consisted of a 3 minute period during which a nebulizer was aerosolizing the methacholine and an additional 3 minute period following the cessation of nebulization. […] Enhanced pause (Penh), a unitless index of airway hyperreactivity, is derived from the expiratory side of the respiratory waveform measured via the plethysmograph and is used as an indirect measure of airway resistance and hyperreactivity. […] Following the methacholine dose response, BALF was collected and all animals were anesthetized, bled and euthanized. […] The Penh value at each of the dose levels of methacholine represents the 6-minute average response. Change from baseline (CFB) in Penh was calculated at each methacholine dose and the area under the curve (AUC) for these CFB values was calculated using the trapezoidal rule. This same approach was applied for each mouse across multiple experiments. […] Data from equal experimental conditions across experiments performed on different days were pooled for statistical analysis and data reporting. […] A random intercept for each experiment was assumed to account for possible similarities of the results obtained from a given experiment (i.e., as a “blocking effect”). […] For FIG. 7, linear AUC values from compound treated mice were reported as a percent of linear AUC values from vehicle-treated ovalbumin-sensitized/ovalbumin-challenged (asthmatic) mice. […]

ERK2 = molecular target: T1, ERK2 (Homo sapiens, UniProt P28482); assay: Kinase panel screen (KinaseProfiler), ERK2; assay type: biochemical; details: 10 μM ATP
T1 construct: purchased Upstate, Millipore Bioscience Division (KinaseProfiler service)
T1 sequence (P28482 whole entry): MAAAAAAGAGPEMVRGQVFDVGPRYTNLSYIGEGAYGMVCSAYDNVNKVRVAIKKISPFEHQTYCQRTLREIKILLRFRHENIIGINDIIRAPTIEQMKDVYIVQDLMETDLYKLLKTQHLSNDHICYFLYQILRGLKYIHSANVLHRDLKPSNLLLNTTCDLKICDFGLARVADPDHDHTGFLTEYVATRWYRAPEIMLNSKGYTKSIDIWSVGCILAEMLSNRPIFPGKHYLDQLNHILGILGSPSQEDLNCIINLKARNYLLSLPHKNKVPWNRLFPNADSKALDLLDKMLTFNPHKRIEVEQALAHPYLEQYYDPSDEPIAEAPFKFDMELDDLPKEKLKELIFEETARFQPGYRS
Procedure: Compounds of Formulae I and II were examined for activity against a selected panel of kinases using the KinaseProfiler™ enzyme profiling services (Upstate, Millipore Bioscience Division). Percent kinase activity at 10 μM and 1 μM test compound and 10 μM ATP was determined against 40 wild-type recombinant human kinases according to Upstate's standard protocol: ASK1, BTK, CSK, c-RAF, GCK, GSK3β, IKKα, IKKβ, IRAK1, IRAK4, JNK1α1, JNK2α2, JNK3, ERK1, ERK2, MAPKAP-K2, MAPKAP-K3, MEK1, MKK4, MKK6, MKK7β, Mnk2, MSK1, PAK3, PDK1, PRAK, ROCK1, Rsk2, SAPK2a, SAPK2b, SAPK3, SAPK4, SRPK1, SRPK2, Syk, TAK1, TBK1, PI3-Kβ, PI3-Kγ, PI3-Kδ.

[4] = test system: LPS-stimulated human monocytes; assay: Human monocyte cytokine secretion assay (LPS); assay type: cell-based; details: range over the three cytokines and both compounds, read-out: potencies for reducing secretion of IL-1β, TNF-α and IL-9
Procedure: Peripheral blood from healthy human volunteers was collected and the monocytes isolated via Ficoll-paque density centrifugation. […] The cells were allowed to pre-incubate with test compound at the indicated concentration for 30 minutes (37° C., 5% CO2, humidified air); after which the supernatant was removed and media containing compound and 1 ng/mL LPS was added. Cells were allowed to incubate with compounds and LPS for 4 hours at 37° C. after which the supernatant was removed and stored at −80° C. Cytokine concentrations in the supernatant were determined using commercially available Bio-Rad Bio-plex™ kits according the manufacturer's instructions.

human eosinophils = assay: Human eosinophil chemotaxis (eotaxin); assay type: cell-based; details: 1 nM eotaxin challenge
Text: These assays are in vitro assays of eosinophil chemotaxis that can be used to evaluate the ability of Rho Kinase inhibitor compounds of Formula I or II to inhibit the migration of eosinophils, an immunomodulatory cell involved in inflammation. Compounds with activity in this assay can be utilized to treat disease associated with an inflammatory response. Human Eosinophil Isolation: Peripheral blood from healthy human volunteers was collected and the PMNs separated via Ficoll-paque density centrifugation followed by hypotonic lysis of the red blood cells. Subsequently, the human eosinophils were isolated from the cell suspension via StemCell Technologies Human Eosinophil Enrichment kit (Cat. No 19256) according to the manufacturer's recommendations. Briefly, unwanted cells were specifically labeled with dextran-coated magnetic nanoparticles using bispecific Tetrameric Antibody Complexes (TAC) directed against cell surface antigens on human blood cells: […] The unwanted cells are then separated from the unlabelled eosinophils using the EasySep® magnetic isolation procedure. In Vitro Chemotaxis: […]

murine eosinophils = assay: Murine eosinophil chemotaxis (eotaxin); assay type: cell-based, mouse; details: 10 nM eotaxin challenge
Procedure: These assays are in vitro assays of eosinophil chemotaxis that can be used to evaluate the ability of Rho Kinase inhibitor compounds of Formula I or II to inhibit the migration of eosinophils, an immunomodulatory cell involved in inflammation. Compounds with activity in this assay can be utilized to treat disease associated with an inflammatory response. Mouse Eosinophil Isolation: Bronchoalveolar lavage was collected from ovalbumin sensitized and challenged mice in a volume of 2.5 mL lavage buffer. The lavage buffer was 0.9% saline with 10% fetal bovine serum. The pooled lavages were maintained on ice until use. […] In Vitro Chemotaxis: […]

[5] = 15 μmol/kg/oral on days 27 to 31

For `CS(=O)(=O)Nc1cccc(CN2CCC[C@H](Nc3ccc4[nH]ncc4c3)C2)c1` [Compound 1.091, (S)-N-(3-((3-(1H-indazol-5-ylamino)piperidin-1-yl)methyl)phenyl)methanesulfonamide], the “eosinophils in BALF” value ([1]; dosed i.t. to day 30, anti-inflammatory dosing paradigm) was “reduction of eosinophils”, the “AUC (0-last)” value [2] was “BLQ” and the Cmax [2] was “BLQ”. For the same compound, the Tmax [2] was “BLQ”, the t½ [2] was “BLQ” and the “IL-1β levels in BALF” value (LPS-challenged mice) was “reduction in IL-1β; also recorded: reduction of IL-1β levels”. For the same compound, the “LPS-induced pulmonary neutrophilia influx” value (LPS-challenged mice; intratracheal dosing one hour prior to LPS challenge) was “significant reduction; also recorded: dose-dependent inhibition” and the airway hyperreactivity ([3]; intratracheal once a day during days 27 to 30) was “prevention of airway hyperreactivity”.
For `NC(=O)Cn1ccc2cc(CN3CCC[C@@H](Nc4ccc5[nH]ncc5c4)C3)ccc21` [Compound 1.162, (R)-2-(5-((3-(1H-indazol-5-ylamino)piperidin-1-yl)methyl)-1H-indol-1-yl)acetamide], the activity at 1 µM (ERK2; 1 μM test compound, read-out: Percent inhibition ERK2) was 89% and the activity at 10 µM (ERK2; 10 μM test compound, read-out: Percent inhibition ERK2) was 60%.
In the case of `NC(=O)Cn1ccc2cc(CN3CC[C@@H](Nc4cccc5cnccc45)C3)ccc21` [Compound 2.059, (R)-2-(5-((3-(isoquinolin-5-ylamino)pyrrolidin-1-yl)methyl)-1H-indol-1-yl)acetamide], the IC50 [4] is reported as 170 to 1000 nM, the “IL-1β levels in BALF” value (LPS-challenged mice) is reported as “reduction in IL-1β; also recorded: reduction of IL-1β levels” and the “Percent inhibition ERK2” value (ERK2; 1 μM test compound) is reported as 56%.
With `CS(=O)(=O)Nc1cccc(CN2CC[C@@H](Nc3cccc4cnccc34)C2)c1` [Compound 2.038, (R)-N-(3-((3-(isoquinolin-5-ylamino)pyrrolidin-1-yl)methyl)phenyl)methanesulfonamide] the “human eosinophil chemotactic response” value (human eosinophils) was “inhibited”, the “concentration of Eotaxin in BALF” value [1, 5] was “reduced levels” and the “concentration of IL-5 in BALF” value [1, 5] was “reduced levels”. For the same compound, the “concentration of IL-13 in BALF” value [1, 5] was “reduced levels”, the “Airway eosinophil infiltration (eosinophils per ml of BALF)” value [1] was “reduced” and the “airway hyperreactivity to metacholine” value [3] was “prevention of airway hyperreactivity”. The “murine eosinophil chemotactic response” value (murine eosinophils) was “inhibited”.
With `c1cc2cc(CN3CCC[C@@H](Nc4ccc5[nH]ncc5c4)C3)ccc2o1` [Compound 1.131, (R)-N-(1-(benzofuran-5-ylmethyl)piperidin-3-yl)-1H-indazol-5-amine] the “Airway eosinophil infiltration (eosinophils per ml of BALF)” value [1] was “reduced” and the “airway hyperreactivity to metacholine” value [3] was “prevention of airway hyperreactivity”.
`OCCn1ccc2cc(CN3CC[C@@H](Nc4cccc5cnccc45)C3)ccc21` [Compound 2.066, (R)-2-(5-((3-(isoquinolin-5-ylamino)pyrrolidin-1-yl)methyl)-1H-indol-1-yl)ethanol] showed an IC50 [4] of 170 to 1000 nM.
